Laboratory results as given in paper PMC4029172 (eLife, 2014).
≈ marks a conversion by molar mass, not a printed value. Numbered stars: 1 amine (or outer) side, 2 acyl side, 3 side chain; on linkers, the order of the positions; unused ones are H or OH. Bridge positions count the residues as written; N and C are the ends. Square brackets hold non-standard residues; d marks the D form. Peptide text beside a SMILES is read from it. * marks the point of attachment. X4 = CC(Oc1ccc(C(N[*:1])C(=O)[*:2])cc1)C(O)(C=CC(=O)[*:3])CCl; NMeF = CN[CH](Cc1ccccc1)C(=O)O; X3 = CC(C)C(O)C(C)C(=O)*

Legend:
[1] = tested on: Enterobacter cloacae ATCC 13047; assay: microbe, parasite or virus in culture; assay type: cell-based; settings: ATCC13047
[2] = tested on: Haemophilus influenzae ATCC 49247; assay: microbe, parasite or virus in culture; assay type: cell-based; settings: ATCC49247
[3] = tested on: Moraxella catarrhalis ATCC 25238; assay: microbe, parasite or virus in culture; assay type: cell-based; settings: ATCC25238
[4] = target: Thermus thermophilus RNAP (Thermus thermophilus, UniProt Q8RQE8+Q8RQE9); assay: biochemical
Chain of Thermus thermophilus RNAP (Q8RQE8 whole entry): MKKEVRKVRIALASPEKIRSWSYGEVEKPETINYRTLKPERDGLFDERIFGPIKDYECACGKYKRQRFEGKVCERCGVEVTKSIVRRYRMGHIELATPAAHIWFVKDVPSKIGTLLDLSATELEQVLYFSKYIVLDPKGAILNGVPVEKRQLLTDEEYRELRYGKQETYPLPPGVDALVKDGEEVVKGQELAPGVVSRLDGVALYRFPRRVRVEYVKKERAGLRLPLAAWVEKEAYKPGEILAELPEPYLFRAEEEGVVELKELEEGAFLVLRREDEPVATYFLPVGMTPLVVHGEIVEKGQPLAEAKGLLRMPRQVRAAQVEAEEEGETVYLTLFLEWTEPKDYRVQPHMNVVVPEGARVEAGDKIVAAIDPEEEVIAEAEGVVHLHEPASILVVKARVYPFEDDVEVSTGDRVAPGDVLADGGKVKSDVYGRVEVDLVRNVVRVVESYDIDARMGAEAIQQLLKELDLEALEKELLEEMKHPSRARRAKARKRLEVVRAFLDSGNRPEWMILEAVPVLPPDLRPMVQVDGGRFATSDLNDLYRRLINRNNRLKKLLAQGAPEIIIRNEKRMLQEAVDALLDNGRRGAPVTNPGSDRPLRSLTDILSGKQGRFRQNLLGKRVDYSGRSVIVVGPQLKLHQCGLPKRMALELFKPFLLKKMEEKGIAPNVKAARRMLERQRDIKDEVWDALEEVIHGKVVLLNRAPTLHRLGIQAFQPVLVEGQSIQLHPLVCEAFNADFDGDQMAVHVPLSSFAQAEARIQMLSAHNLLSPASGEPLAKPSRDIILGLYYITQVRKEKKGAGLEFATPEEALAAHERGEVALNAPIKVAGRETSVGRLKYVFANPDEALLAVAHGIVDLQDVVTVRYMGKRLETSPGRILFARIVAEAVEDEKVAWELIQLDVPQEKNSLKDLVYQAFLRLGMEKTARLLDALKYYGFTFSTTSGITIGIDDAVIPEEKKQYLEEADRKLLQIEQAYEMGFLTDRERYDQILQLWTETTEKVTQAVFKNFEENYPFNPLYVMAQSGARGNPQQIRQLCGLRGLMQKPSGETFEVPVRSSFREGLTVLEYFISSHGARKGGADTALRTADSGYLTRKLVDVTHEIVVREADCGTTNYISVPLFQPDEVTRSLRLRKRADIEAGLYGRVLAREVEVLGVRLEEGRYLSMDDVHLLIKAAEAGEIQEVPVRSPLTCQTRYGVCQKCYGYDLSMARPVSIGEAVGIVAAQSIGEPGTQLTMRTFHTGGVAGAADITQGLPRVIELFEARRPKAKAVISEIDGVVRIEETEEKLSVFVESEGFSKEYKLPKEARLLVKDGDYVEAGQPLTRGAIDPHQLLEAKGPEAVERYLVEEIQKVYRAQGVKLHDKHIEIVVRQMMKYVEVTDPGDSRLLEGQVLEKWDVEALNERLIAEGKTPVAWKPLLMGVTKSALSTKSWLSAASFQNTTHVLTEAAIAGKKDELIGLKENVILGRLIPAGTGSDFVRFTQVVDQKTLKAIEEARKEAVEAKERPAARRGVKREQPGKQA
Chain of Thermus thermophilus RNAP (Q8RQE9 whole entry): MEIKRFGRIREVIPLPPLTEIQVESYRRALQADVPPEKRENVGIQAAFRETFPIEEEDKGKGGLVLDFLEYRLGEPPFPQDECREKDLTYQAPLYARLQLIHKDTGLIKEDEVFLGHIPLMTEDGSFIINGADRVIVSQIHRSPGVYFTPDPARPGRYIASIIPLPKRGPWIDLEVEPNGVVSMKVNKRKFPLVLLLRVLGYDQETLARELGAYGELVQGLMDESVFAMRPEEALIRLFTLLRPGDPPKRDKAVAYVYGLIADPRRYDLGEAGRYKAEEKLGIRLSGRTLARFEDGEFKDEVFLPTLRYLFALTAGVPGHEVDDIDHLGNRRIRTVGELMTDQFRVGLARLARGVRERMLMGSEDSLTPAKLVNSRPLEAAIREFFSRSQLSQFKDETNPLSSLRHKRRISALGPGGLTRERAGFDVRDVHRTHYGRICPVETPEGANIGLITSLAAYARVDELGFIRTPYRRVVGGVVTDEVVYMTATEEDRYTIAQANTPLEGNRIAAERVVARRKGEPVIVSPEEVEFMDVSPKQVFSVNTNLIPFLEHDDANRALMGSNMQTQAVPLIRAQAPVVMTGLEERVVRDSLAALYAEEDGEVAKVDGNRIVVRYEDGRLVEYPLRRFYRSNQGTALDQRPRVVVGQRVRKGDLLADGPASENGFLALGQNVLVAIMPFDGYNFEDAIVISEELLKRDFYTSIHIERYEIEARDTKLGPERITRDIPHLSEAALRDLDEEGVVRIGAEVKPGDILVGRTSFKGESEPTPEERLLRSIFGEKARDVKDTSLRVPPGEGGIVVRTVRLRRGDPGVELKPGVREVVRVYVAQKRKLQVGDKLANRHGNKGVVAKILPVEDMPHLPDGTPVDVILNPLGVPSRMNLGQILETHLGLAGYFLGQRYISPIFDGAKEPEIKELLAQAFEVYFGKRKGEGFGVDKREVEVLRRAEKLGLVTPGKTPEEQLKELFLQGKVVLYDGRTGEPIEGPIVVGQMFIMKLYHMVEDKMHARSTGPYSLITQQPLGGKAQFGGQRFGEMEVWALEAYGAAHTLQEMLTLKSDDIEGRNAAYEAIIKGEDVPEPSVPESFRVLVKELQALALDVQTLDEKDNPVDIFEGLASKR

CCC(C)C1NC(=O)C(NC(=O)C(C)C(O)C(C)C)C(C)OC(=O)C2COC(=O)CNC(=O)C=CC(O)(CCl)C(C)Oc3ccc(cc3)C(NC1=O)C(=O)N(C)C(Cc1ccccc1)C(=O)NC(C(C)O)C(=O)N2 (stereo not shown) [SalB, salinamide B] (X3-TI[X4][NMeF]TS; ester 1-C; linker 3-6 via G; configuration not given here)
MIC [1]: 12.5 µg/mL (≈ 11.8 µM)
MIC [2]: 12.5 µg/mL (≈ 11.8 µM)
MIC [3]: > 50 µg/mL
IC50 [4]: > 100 µM
